From US9974290B2, “Animal model and method for studying gene-gene interactions” (UNIVERSITY OF SOUTH FLORIDA, priority 2015, dated 2018)

Test system: Raji B cells
Experiment: Apoptosis assay in Raji B cells treated with PS-341
Type: cell-based
Details: Raji B cells treated with PS-341 (FIG. 11B); effect can be rescued by LRBA knockdown
Protocol: FIGS. 2A, 2B, 2C-1, 2C-2, 2D, and 2E. LRBA interacts with NFkB and regulates cell survival. FIG. 2A: LRBA was stably knocked down in Raji cells by the short hairpin (sh) RNA technique in Raji B cells. NFkB activity was measured by an NFkB luciferase reporter. FIG. 2B: The phospho-NFkB (pS529) levels were detected by Phosflow Kit. FIGS. 2C-1 and 2C-2: TNFα (FIG. 2C-1) and IL10 (FIG. 2C-2) proteins levels were measured by the human Th1/Th2 cytokine bead-array kit. FIG. 2D: Apoptosis assay. Raji B cells were treated with various stress stimuli including proteasome inhibitors, serum starvation and bacterial infection. Apoptosis was detected by Annexin V-PE and 7-AAD. FIG. 2E: LRBA (−/−) ES cell clones were obtained by culturing LRBA (+/−) ES cells with 1 mg/ml G418 for ˜two weeks. Equal number of ES cells was plated into each well of a 96-well plate. The average cell numbers were counted from three wells at each time point.
FIGS. 11A-11E. LRBA interacts with important genes in regulating apoptosis and proliferation. […] FIG. 11A: NFkB activity was measured by an NFkB luciferase reporter. The Phosphorylated (P−) NFkB (pS529) levels were detected by Phosflow Kit. […] The average cell numbers were counted from three wells at each time point. […] Cell lysates from WT or LRBA KD stable Raji cells were analyzed by Western blot. Protein levels were quantified with Quantity One software. […]

With `CC(C)C[C@H](NC(=O)[C@H](Cc1ccccc1)NC(=O)c1cnccn1)B(O)O` [PS-341] the apoptosis was “promotes apoptosis”.
